Assay results: paper PMC11830572, “5‐hydroxymethylcytosine features of portal venous blood predict metachronous liver metastases of colorectal cancer and reveal phosphodiesterase 4 as a therapeutic target” (Clinical and Translational Medicine, 2025)
“Also recorded” adds a separate entry of the source. Where two headings read alike, the source gives them in different places.

Key:
[1] = system: HIF-1α, CCN2, p-AKT and p-ERK in MC38 cells; assay: Western blot / immunofluorescence / mRNA of HIF-1α, CCN2, p-AKT, p-ERK in MC38 cells; type: cell-based, murine; settings: for mRNA and protein levels of CCN2: HIF-1α inhibitor treatment
Protocol: Western blot was performed using the following antibodies: anti‐phospho‐ERK (CST, #4370), anti‐ERK (CST, #4695), anti‐phospho‐AKT (CST, #4060), anti‐AKT (CST, #9272), anti‐beta‐tubulin (CST, #86298), anti‐PDE4D (Abcam, ab171750) and anti‐CCN2 (Abcam, ab6992). […] The blots were blocked with 5% non‐fat milk and incubated overnight at 4°C with the primary antibody. Afterward, the blots were incubated for 1 h with the secondary antibody and subsequent imaging was carried out by BIO‐RAD Chemidoc MP imaging system. Relative protein levels were corrected for beta‐tubulin or beta‐actin.

MC38 cells [2] = assay: Transwell migration assay, MC38; type: cell-based, murine
Protocol: To access cell migration, 1.0 × 10^5 cells were seeded into the 8‐µm‐pore upper chambers in serum‐free RPMI1640 and incubated in RPMI1640 with 10% FBS of the lower chamber of 12‐well plates (Corning Star). After normal culture for 24 h, cells were permeabilised with 100% methanol and then stained with .1% crystal violet.

PDE4 = PDE4 (Homo sapiens, UniProt Q08499); assay: In vitro enzymatic activity assay: inhibitory activities of 2-arylbenzofurans towards PDE4 (3H-cAMP substrate); type: biochemical; settings: for inhibition at 0.1 µM: read-out: PDE4 inhibition 100 nM
Protocol: Protocols for the expression and enzyme assay of PDE isoforms were similar to our previous works.[98], [99], [100] Briefly, the recombinant plasmid was transformed into Escherichia coli competent cells BL21 (CodonPlus) and cultured in LB medium at 37°C until the optical density at 600 nm (A600) reached .6–.8. Induction of protein expression was achieved by adding .1 mM isopropyl β‐D‐thiogalactopyranoside (IPTG), followed by further incubation at 15°C for 24 h. The recombinant proteins were then purified using a Ni‐NTA column (Qiagen), a Q column (GE Healthcare), and a Superdex 100 column (GE Healthcare), and Superdex 100 column (GE Healthcare). The enzymatic activities of PDEs were measured by using ^3H‐cAMP or ^3H‐cGMP (GE Healthcare) as substrates. The assay buffer contains 20 mM Tris‐HCl (pH 7.5), 10 mM MgCl2 or 4.0 mM MnCl2, 1.0 mM dithiothreitol, and 10–30 nM ^3H‐cAMP or ^3H‐cGMP (20 000–30 000 cpm/assay). The reaction was conducted at room temperature for 15 min and then terminated by adding .2 M ZnSO4. The reaction products, 3H‐AMP or 3H‐GMP, were precipitated with .2 N Ba(OH)2, while unreacted 3H‐cAMP or 3H‐cGMP remained in the supernatant. […] For the measurement of IC50, eight concentrations at least were used and IC50 values were calculated by the nonlinear regression.

PDE5A1 (535-860) = PDE5A1 (535-860) (Homo sapiens, UniProt O76074); assay: In vitro enzymatic activity assay, PDE selectivity panel: PDE5A1; type: biochemical
Protocol: (§2) Briefly, the recombinant plasmid was transformed into Escherichia coli competent cells BL21 (CodonPlus) and cultured in LB medium at 37°C until the optical density at 600 nm (A600) reached .6–.8. Induction of protein expression was achieved by adding .1 mM isopropyl β‐D‐thiogalactopyranoside (IPTG), followed by further incubation at 15°C for 24 h. The recombinant proteins were then purified using a Ni‐NTA column (Qiagen), a Q column (GE Healthcare), and a Superdex 100 column (GE Healthcare), and Superdex 100 column (GE Healthcare). The enzymatic activities of PDEs were measured by using ^3H‐cAMP or ^3H‐cGMP (GE Healthcare) as substrates. The assay buffer contains 20 mM Tris‐HCl (pH 7.5), 10 mM MgCl2 or 4.0 mM MnCl2, 1.0 mM dithiothreitol, and 10–30 nM ^3H‐cAMP or ^3H‐cGMP (20 000–30 000 cpm/assay). The reaction was conducted at room temperature for 15 min and then terminated by adding .2 M ZnSO4. The reaction products, 3H‐AMP or 3H‐GMP, were precipitated with .2 N Ba(OH)2, while unreacted 3H‐cAMP or 3H‐cGMP remained in the supernatant. The radioactivity of the supernatant was measured in 2.5 mL of Ultima Gold liquid scintillation cocktail (Fisher Scientific) using a PerkinElmer 2910 liquid scintillation counter. For the measurement of IC50, eight concentrations at least were used and IC50 values were calculated by the nonlinear regression.

[3] = Emetic assay on beagle dogs; type: in vivo
Protocol: All animal care and experimental protocols were conducted in accordance with the Guide for the Care and Use of Laboratory Animals (National Institutes of Health Publication, revised 1996, no. 86‐23, Bethesda, MD) and were approved by the Institutional Animal Research Ethics Committee of Sun Yat‐Sen University. (IACUC numbers: […]‐2021‐000130). […] Animals are watched continuously for 180 min for the behaviour of retching, excessive salivation, and vomiting.

MC38 cells [4] = assay: Cell viability assay (CCK8); type: cell-based, murine
Protocol: A total of 2000–5000 cells were seeded in 96‐well plates for an overnight culture. The medium was then replaced with fresh medium supplemented with varying concentrations of drugs. […]

PDE3A (679-1087) = PDE3A (679-1087) (Homo sapiens, UniProt Q14432); assay: biochemical
Protocol: as §2

PDE7A1 (130-482) = PDE7A1 (130-482) (Homo sapiens, UniProt Q13946); assay: In vitro enzymatic activity assay, PDE selectivity panel: PDE7A1; type: biochemical
Protocol: as §2

[5] = 2-week repeated administration in rats: overall long-term safety
[6] = Safety in liver metastasis model mice (body weight curve, H&E of heart, lung, kidney); type: in vivo
Protocol: (§1) A murine colon cancer cell line (MC38) stably transfected with the firefly luciferase (Luc) gene (Addgene plasmid #17477) was generated. To establish a model of liver metastases mice were anaesthetised with ketamine. Then the spleens were exposed to allow direct intrasplenic injections of 5 × 10^5 Luc‐labelled MC38 (MC38‐Luci) cells in 50 µL 1 mM EDTA in PBS. Mice were sacrificed 18 days after injection of the tumour cells, then spleen and liver were analysed immediately. For ex vivo imaging, female mice were administered by intraperitoneal injection with d‐luciferin (150 mg/kg; Perkin Elmer). Ten minutes later, mice were sacrificed, the livers were collected and […] the ex vivo IVIS Lumina III system (Perkin Elmer). Collected images were analysed using Living Image 4.3.1 software (Perkin Elmer): ROIs were drawn around each liver and radiant efficiency calculated.

MC38 liver metastases = assay: Liver metastasis model, intrasplenic injection of MC38-Luc cells; type: in vivo, mice; settings: for bioluminescence of mice in the liver: day 18
Protocol: as §1

PDE1B (10-487) = PDE1B (10-487) (Homo sapiens, UniProt Q01064); assay: biochemical
Protocol: as §2

PDE4D2 = system: PDE4D2; parameters: method as in PMID 22483586; settings: cited from earlier work
PDE4B2 = system: PDE4B2; parameters: method as in PMID 22483586; settings: cited from earlier work
MC38 cells [7] = assay: Wound healing scratch migration assay; type: cell-based, murine; settings: 24 h and 48 h
Protocol: For migration assays (wound healing assays), cells were seeded in 6‐well plates and grown until confluence. Cells were scraped in each well, the medium was replaced with medium with 2% FBS to block cell proliferation. After 24 h or 48 h, the photographs of each well were obtained.

MC38 cells [8] = assay: RNA sequencing of treated MC38 cells; type: cell-based, murine
Protocol: RNA integrity was assessed using the RNA Nano 6000 Assay Kit on the Bioanalyzer 2100 system (Agilent Technologies, CA, USA). Total RNA was used as input for RNA sample preparation. Briefly, mRNA was purified from total RNA using poly‐T oligo‐attached magnetic beads. Fragmentation was performed using divalent cations at elevated temperature in First Strand Synthesis Reaction Buffer (5X). First‐strand cDNA was synthesised using a random hexamer primer and M‐MuLV Reverse Transcriptase (RNase H‐). Second‐strand cDNA synthesis was then carried out using DNA Polymerase I and RNase H. The remaining overhangs were converted to blunt ends via exonuclease/polymerase activities. After adenylation of the 3′ ends of the DNA fragments, adaptors with a hairpin loop structure were ligated to prepare for hybridisation. To select cDNA fragments in the preferred size range of 370–420 bp, the library fragments were purified using the AMPure XP system (Beckman Coulter, Beverly, USA). PCR amplification was performed using Phusion High‐Fidelity DNA polymerase, universal PCR primers, and an index (X) primer. The PCR products were then purified again using the AMPure XP system, and the library quality was assessed on the Agilent Bioanalyzer 2100 system. […] After cluster generation, the library preparations were sequenced on the Illumina NovaSeq platform, generating 150 bp paired‐end reads.

[9] = mice, MC38-Luc intrasplenic, two weeks of treatment

Chain of PDE4 (Q08499 388-715): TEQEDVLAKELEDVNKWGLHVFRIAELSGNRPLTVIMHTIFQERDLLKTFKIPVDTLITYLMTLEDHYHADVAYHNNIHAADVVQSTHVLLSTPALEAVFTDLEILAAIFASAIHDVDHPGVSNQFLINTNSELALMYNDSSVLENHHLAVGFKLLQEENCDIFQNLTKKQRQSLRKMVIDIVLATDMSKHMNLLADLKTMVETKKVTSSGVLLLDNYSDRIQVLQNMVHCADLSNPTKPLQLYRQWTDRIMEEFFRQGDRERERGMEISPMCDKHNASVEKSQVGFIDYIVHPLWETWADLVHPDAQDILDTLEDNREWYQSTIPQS
Chain of PDE7A1 (130-482) (Q13946 130-482): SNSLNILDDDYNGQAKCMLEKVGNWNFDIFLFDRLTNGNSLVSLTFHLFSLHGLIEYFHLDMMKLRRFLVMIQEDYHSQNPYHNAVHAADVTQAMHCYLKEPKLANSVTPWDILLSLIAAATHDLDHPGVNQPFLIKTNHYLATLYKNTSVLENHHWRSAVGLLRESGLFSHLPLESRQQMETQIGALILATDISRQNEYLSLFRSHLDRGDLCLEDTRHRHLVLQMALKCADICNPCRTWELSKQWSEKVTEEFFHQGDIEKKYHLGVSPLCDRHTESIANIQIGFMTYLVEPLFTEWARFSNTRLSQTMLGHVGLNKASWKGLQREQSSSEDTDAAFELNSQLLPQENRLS
Chain of PDE1B (10-487) (Q01064 10-487): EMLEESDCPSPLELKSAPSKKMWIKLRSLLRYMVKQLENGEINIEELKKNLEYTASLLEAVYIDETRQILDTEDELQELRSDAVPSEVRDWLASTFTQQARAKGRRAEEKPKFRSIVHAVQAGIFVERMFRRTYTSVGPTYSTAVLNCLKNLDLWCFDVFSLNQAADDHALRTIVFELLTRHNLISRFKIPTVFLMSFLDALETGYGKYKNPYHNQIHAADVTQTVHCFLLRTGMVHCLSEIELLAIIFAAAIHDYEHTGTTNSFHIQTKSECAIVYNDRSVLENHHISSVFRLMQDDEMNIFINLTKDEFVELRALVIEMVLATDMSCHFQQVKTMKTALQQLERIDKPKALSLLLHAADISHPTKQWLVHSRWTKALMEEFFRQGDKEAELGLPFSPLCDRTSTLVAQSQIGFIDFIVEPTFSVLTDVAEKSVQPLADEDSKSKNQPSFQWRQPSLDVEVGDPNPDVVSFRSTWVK
Chain of PDE3A (679-1087) (Q14432 679-1087): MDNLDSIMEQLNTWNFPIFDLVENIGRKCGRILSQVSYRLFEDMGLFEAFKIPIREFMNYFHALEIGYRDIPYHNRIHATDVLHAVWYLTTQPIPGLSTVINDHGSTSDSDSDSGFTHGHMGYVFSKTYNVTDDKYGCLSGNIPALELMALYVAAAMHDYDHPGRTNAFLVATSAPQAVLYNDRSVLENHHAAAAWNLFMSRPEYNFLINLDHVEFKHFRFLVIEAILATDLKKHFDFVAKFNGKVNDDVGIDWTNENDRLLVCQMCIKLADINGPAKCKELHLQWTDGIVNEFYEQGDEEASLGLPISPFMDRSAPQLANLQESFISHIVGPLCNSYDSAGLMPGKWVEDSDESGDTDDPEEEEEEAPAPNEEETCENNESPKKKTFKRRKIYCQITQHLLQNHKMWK

## COc1cc2c(cc1O)CC[C@@H]1[C@@H]2CC[C@]2(C)[C@@H](O)CC[C@@H]12 [2‐MEOE2]
[1]
  mRNA and protein levels of CCN2: significant decrease

## C=C[C@@]1(C)CC(=O)[C@]2(O)[C@@]3(C)[C@@H](O)CCC(C)(C)[C@@H]3[C@H](O)[C@H](OC(C)=O)[C@@]2(C)O1 [FSK, forskolin]
MC38 cells [2]
  migration, transwell assay: quantitatively similar to those of roflumilast
[1]
  levels of CCN2, p-AKT and p-ERK: significantly inhibited

## O=S(=O)(NCCSSCCNS(=O)(=O)c1cc(Cl)ccc1Cl)c1cc(Cl)ccc1Cl [KC7F2]
[1]
  mRNA and protein levels of CCN2: significant decrease

## COc1cccc(Nc2cc(-c3cc4ccccc4o3)ccc2C(N)=O)c1 [L1]
PDE4
  inhibition at 1 µM: 55.7%
  inhibition at 0.1 µM: 41.9%

## COc1cccc(Nc2cc(-c3cc4ccc(O)cc4o3)ccc2C(N)=O)c1 [L2]
PDE4
  IC50: 181 ± 13 nM
  inhibition at 1 µM: 68.5%
  inhibition at 0.1 µM: 48.6%

## COc1cccc(Nc2cc(-c3cc4cc(OC)ccc4o3)ccc2C(N)=O)c1 [L3]
PDE4
  inhibition at 1 µM: 24.1%
  inhibition at 0.1 µM: 17%

## COc1cccc(Nc2cc(-c3cc4cccc(OC)c4o3)ccc2C(N)=O)c1 [L4]
PDE4
  inhibition at 1 µM: 59.5%
  inhibition at 0.1 µM: 28.9%

## COc1cccc(Nc2cc(-c3cc4ccc(Cl)cc4o3)ccc2C(N)=O)c1 [L5]
PDE4
  inhibition at 1 µM: 36.9%
  inhibition at 0.1 µM: 15.9%

## COc1cccc(Nc2cc(-c3cc4cc(F)ccc4o3)ccc2C(N)=O)c1 [L6]
PDE4
  inhibition at 1 µM: 55.5%
  inhibition at 0.1 µM: 30.3%

## NC(=O)c1ccc(-c2cc3ccc(O)cc3o2)cc1Nc1cccc(Cl)c1 [L7]
PDE4
  IC50: 197 ± 37.4 nM
  inhibition at 1 µM: 77.5%
  inhibition at 0.1 µM: 44.1%

## NC(=O)c1ccc(-c2cc3ccc(O)cc3o2)cc1Nc1cccc(F)c1 [L8]
PDE4
  inhibition at 1 µM: 61.6%
  inhibition at 0.1 µM: 30.6%

## NC(=O)c1ccc(-c2cc3ccc(O)cc3o2)cc1Nc1cc(F)cc(F)c1 [L9]
PDE4
  inhibition at 1 µM: 65.8%
  inhibition at 0.1 µM: 39.1%

## FC(F)Oc1ccc(-c2cc3ccccc3o2)cc1OCC1CC1 [L10]
PDE4
  inhibition at 1 µM: 37.4%

## Oc1ccc2cc(-c3ccc(OC(F)F)c(OCC4CC4)c3)oc2c1 [L11]
PDE5A1 (535-860)
  IC50: 3000 nM
[3]; 10 mg/kg po
  No. of animals with emesis/No. of test animals: 0/3
[3]; oral dose of 10 mg/kg
  emetic activity: did not induce emetic effects
MC38 cells [4]
  cell viability / growth (CCK8 assay): significantly inhibit the growth
MC38 cells [4]; Mus musculus, MC-38
  IC50: ~20000 nM
[1]
  levels of CCN2, p-AKT and p-ERK: significantly repressed
PDE3A (679-1087)
  IC50: > 10000 nM
PDE7A1 (130-482)
  IC50: 2290 nM
[5]; 30 mg/kg or 100 mg/kg intraperitoneal injection for 2 weeks
  food intake, weight, haematology indicators and serum test indicators: no abnormal changes
[5]; daily doses of up to 100 mg/kg for 2 weeks
  adverse effects on body weight or other signs of overt toxicity: did not cause any adverse effects
[6]
  safety: body weight and H&E of heart, lung and kidney: safety of compound L11 was observed; also recorded: could not induce weight loss or any major organ damage
MC38 liver metastases
  bioluminescence of mice in the liver: significant decrease
MC38 liver metastases; [9]
  liver metastases (liver images and bioluminescence images): significantly inhibit tumour metastases
MC38 liver metastases; mice, after treatment
  metastatic areas in the liver (H&E staining): significantly suppressed liver metastases
PDE1B (10-487)
  IC50: > 10000 nM

## FC(F)Oc1ccc(-c2cc3ccccc3o2)cc1OC1CCCC1 [L12]
PDE4
  IC50: 910 nM
  inhibition at 1 µM: 73.3%
  inhibition at 0.1 µM: 13.2%

## Oc1ccc2cc(-c3ccc(OC(F)F)c(OC4CCCC4)c3)oc2c1 [L13]
PDE4
  IC50: 145 ± 2.3 nM
  inhibition at 1 µM: 92.2%
  inhibition at 0.1 µM: 42.7%

## NC1(c2ccc(-c3nc4ccn5c(=O)[nH]nc5c4cc3-c3ccccc3)cc2)CCC1 [MK2206]
MC38 cells [2]
  migration, transwell assay: significantly inhibit MC38 metastases

## Oc1cc(O)cc(-c2cc3ccc(O)cc3o2)c1 [Moracin M]
PDE4D2
  IC50: 2900 nM
PDE4B2
  IC50: 4500 nM

## COc1cccc(-c2cc(=O)c3ccccc3o2)c1N [PD98095]
MC38 cells [2]
  migration, transwell assay: significantly inhibit MC38 metastases

## O=C(Nc1c(Cl)cncc1Cl)c1ccc(OC(F)F)c(OCC2CC2)c1 [Roflumilast, roflumilast]
MC38 cells [2]; combined with siCCN2
  migration, transwell assay: could not inhibit tumour metastases
MC38 cells [2]; combined with siHIF1A
  migration, transwell assay: Same result
[3]; 1.0 mg/kg po
  No. of animals with emesis/No. of test animals: 3/3
MC38 cells [4]
  cell viability / growth (CCK8 assay): less toxicity
MC38 cells [7]
  migration, scratch wound closure: significantly inhibited the migration
[1]; 24 h
  HIF-1α and CCN2 expression levels (western blot): inhibited
[1]; 48 h
  protein level of CCN2 (immunofluorescence): decreased significantly
MC38 cells [8]
  expression of eight cell adhesion pathway genes (CCN2, LAMB3, EGFL7, EPHA8, COL7A1, AMIGO2, COL6A3, CDH26): relatively low expression
MC38 liver metastases
  bioluminescence of mice in the liver: significant decrease
MC38 liver metastases; [9]
  liver metastases (liver images and bioluminescence images): fewer metastatic lesions
  metastasis sites, liver total flux (and liver weight), quantitative statistics: could inhibit liver metastasis
